# From the NIST ThermoML archive (doi:10.1021/je400493x)
# Numbers after ± are expanded uncertainties.
# What was measured:
# [1] = 298.15 K; 100 kPa; Liquid
# [2] = xn = mol fraction of the nth substance listed; conditions: 298.15 K, 100 kPa, Liquid
# [3] = 298.15 K, Liquid mixture 1, Drop volume
smiles,measurement,setting,value
CCCCCCCCCCCC [dodecane],mass density,[1],745.29 ± 4.2 kg/m3
same,viscosity,[1],1.347 ± 0.033 mPa·s
CCCCCCCCCCCC [dodecane] + CC(C)CCOP(=O)(OCCC(C)C)OCCC(C)C,mass density,[2]; x2 = 0,745.29 ± 4.2 kg/m3
same,viscosity,[2]; x2 = 0,1.347 ± 0.033 mPa·s
CCCCCCCCCCCC [dodecane] + O,interfacial tension,[3]; 100 kPa,52.6 ± 0.8 mN/m
CC(C)CCOP(=O)(OCCC(C)C)OCCC(C)C [triisopentyl phosphate],mass density,[1],946.95 ± 1.8 kg/m3
same,viscosity,[1],4.267 ± 0.076 mPa·s
CC(C)CCOP(=O)(OCCC(C)C)OCCC(C)C [triisopentyl phosphate] + CCCCCCCCCCCC,mass density,[2]; x1 = 0.0999,765.49 ± 4 kg/m3
same,viscosity,[2]; x1 = 0.0999,1.488 ± 0.035 mPa·s
same,mass density,[2]; x1 = 0.1998,785.78 ± 3.7 kg/m3
same,viscosity,[2]; x1 = 0.1998,1.678 ± 0.037 mPa·s
same,mass density,[2]; x1 = 0.3001,805.91 ± 3.5 kg/m3
same,viscosity,[2]; x1 = 0.3001,1.896 ± 0.04 mPa·s
same,mass density,[2]; x1 = 0.4002,826.05 ± 3.2 kg/m3
same,viscosity,[2]; x1 = 0.4002,2.119 ± 0.043 mPa·s
same,mass density,[2]; x1 = 0.5001,846.25 ± 3 kg/m3
same,viscosity,[2]; x1 = 0.5001,2.391 ± 0.047 mPa·s
same,mass density,[2]; x1 = 0.5999,866.75 ± 2.7 kg/m3
same,viscosity,[2]; x1 = 0.5999,2.674 ± 0.051 mPa·s
same,mass density,[2]; x1 = 0.7002,888.26 ± 2.5 kg/m3
same,viscosity,[2]; x1 = 0.7002,3.015 ± 0.056 mPa·s
same,mass density,[2]; x1 = 0.7998,909.12 ± 2.2 kg/m3
same,viscosity,[2]; x1 = 0.7998,3.375 ± 0.062 mPa·s
same,mass density,[2]; x1 = 0.9001,929.41 ± 2 kg/m3
same,viscosity,[2]; x1 = 0.9001,3.804 ± 0.068 mPa·s
same,mass density,[2]; x1 = 1,946.95 ± 1.8 kg/m3
same,viscosity,[2]; x1 = 1,4.267 ± 0.076 mPa·s
CC(C)CCOP(=O)(OCCC(C)C)OCCC(C)C [triisopentyl phosphate] + O,interfacial tension,[3]; 101 kPa,14.4 ± 0.8 mN/m
